For assay [1], the system named is pBg12-GUS-tNOS (β-1.3-glucanase PR-2 type gene promoter). The experiment in a line: β-glucuronidase activity in pBg12-GUS-tNOS Arabidopsis plants upon chemical treatment. The format is in vivo.
In assay [2] the test system is pPDF1.2-GUS-tNOS reporter gene. As to the kind of experiment: β-glucuronidase activity in four-week-old pPDF1.2-GUS-tNOS Arabidopsis plants upon chemical treatment. Type of assay: in vivo.
Assay [3] deals with plant defensin gene expression (PDF1.2). As to the kind of experiment: Induction of plant defensins in Arabidopsis leaves upon chemical treatments (RNA gel blot, ELISA). Type of assay: in vivo. A general note: ELISA stands for enzyme-linked immunosorbent assay.
For assay [4], the system named is pPDF1.2-GUS-tNOS reporter gene. The experiment in a line: β-glucuronidase activity in pPDF1.2-GUS-tNOS tobacco plants upon chemical treatment. The format is in vivo, tobacco (cv. Xanthi-nc). The note with it: 8-week-old tobacco, treated leaves 48 h after treatment; SA S mM, MeJA 50 μM, paraquat 25 μgM.
Another assay has as its system tobacco PR-1 gene. As to the kind of experiment: RNA gel blot analysis of tobacco PR-1 gene activation. The following applies: tobacco plants treated in the same way; not shown. Type of assay: in vivo.
The test system of another assay is Botrvtis cinerea. The following applies: cited from earlier work.
The subject of a further assay is Alterniaria alternata. The following applies: cited from earlier work.
In assay [5] the test system is pPDF1.2-GUS-tNOS transgene. As to the kind of experiment: β-glucuronidase activity in seedlings of pPDF1.2-GUS-tNOS Arabidopsis lines germinated on jasmonic acid. Type of assay: in vivo, Arabidopsis thaliana ecotype C24. The note with it: 10 μM jasmonic acid. An excerpt: The β-glucuronidase activity was normalized to the total protein content in each sample, as determined by the method of Bradford (1976) using bovine serum albumin as a […].

In the next assay the test system is A. brassicicola. The format is cell-based, Alternaria brassicicola. The following applies: FIG. 3D.
Where [6] appears, read: treated leaves, 48 h, JA 500 μM, MeJA 50 μM, SA 5 mM, INA 1 mg/ml, BTH 300 μM, paraquat 25 μM, ethylene 25 ppm.
[7] abbreviates: treated leaves, 48 hours, JA 500 μM, MeJA 50 μM, SA 5 mM, INA 1 mg/ml, BTH 300 μM, paraquat 25 μM, ethylene 25 ppm.
Where [8] appears, read: […], SA 5 mM, INA 1 mg/mL, paraquat 25 μM, rose bengal 20 mM, methyl jasmonate 45 μM in 0.1% ethanol, ethylene 20 ppm.

Turning to `CC/C=C\CC1C(=O)CCC1CC(=O)OC` (stereo not drawn) [methyl jasmonate], in assay [1] (setting [6]), the “β-glucuronidase activity in pBg12-GUS-tNOS plants” value is reported as “neither JA, MeJA, ethylene nor paraquat had any effect”. Moreover, the “β-glucuronidase activity, single and combined treatments (synergy)” value in [2] (methyl jasmonate 0.5 μM, ethylene 25 ppm, ethephon 333 μM, FIG. 19) was “did not cause increased”. Besides, in assay [2] (setting [7]), the “induction of the pPDF1.2-GUS-tNOS reporter gene (β-glucuronidase activity)” value (shortened to “induction”) is “induced”. For the same compound, the “plant defensin gene expression (RNA blot analysis, ELISA)” value (“plant defensin gene expression” for short) in assay [3] (setting [8]) is listed as “significantly increased”. Also, in assay [3] (sterile plants grown on an agar medium, ethylene alone 25 ppm, results not shown), the PDF1.2 accumulation result is “still induced PDF1.2 accumulation”.
In the case of `O=C(O)c1ccccc1O` [salicylic acid], the “β-glucuronidase activity in pBg12-GUS-tNOS plants” value in assay [1] (setting [6]) was “markedly increased”. Also, the “induction” value in [2] (setting [7]) is “without effect”. Besides, in assay [3] (setting [8]), the “plant defensin gene expression” value is on record as “no induction”. Further, the “increase in β-glucuronidase activity” value in [4] came out at 2 fold. For the same compound, in the assay with tobacco PR-1 gene, the “activation of the tobacco PR-1 gene (RNA gel blot)” value was “induced only by salicylic acid”.
As to `CSC(=O)c1cccc2nnsc12` [BTH, 1,2,3-benzothiadiazole-7-carbothioic acid S-methylester], the “β-glucuronidase activity in pBg12-GUS-tNOS plants” value in [1] (setting [6]) is given as “markedly increased”. Moreover, the “induction” value in assay [2] (setting [7]) is “without effect”. For the same compound, the “protection of tobacco plants against infection by Botrytis cinerea” value in the assay with Botrvtis cinerea is on record as “failed to protect”. Moreover, the “protection of tobacco plants against infection by Alternaria alternata” value with Alterniaria alternata is reported as “failed to protect”.
Take `O=C(O)c1cc(Cl)nc(Cl)c1` [INA, 2,6-dichloroisonicotinic acid]: the “β-glucuronidase activity in pBg12-GUS-tNOS plants” value in assay [1] (setting [6]) is reported as “markedly increased”. For the same compound, in assay [2] (setting [7]), the “induction” value is “without effect”. Further, the “plant defensin gene expression” value in assay [3] (setting [8]) is given as “no induction”.
Turning to `CC/C=C\C[C@H]1C(=O)CC[C@@H]1CC(=O)O` [jasmonic acid], the “β-glucuronidase activity in pBg12-GUS-tNOS plants” value in assay [1] (setting [6]) is listed as “neither JA, MeJA, ethylene nor paraquat had any effect”. In addition, the “induction” value in assay [2] (setting [7]) is given as “induced”. The “increase of β-glucuronidase activity in jasmonate treated versus untreated seedlings” value in assay [5] (all six lines tested) fell in the range of 9 to 25 fold. In addition, the “β-glucuronidase activity, JA-treated” value was 2895 pmoles 4-methylumbelliferone r in assay [5] (transgenic line 3, 10-day-old seedlings); 978 pmoles 4-methylumbelliferone r in assay [5] (transgenic line 4, 10-day-old seedlings); 2676 pmoles 4-methylumbelliferone r in [5] (transgenic line 5, 10-day-old seedlings); 2166 pmoles 4-methylumbelliferone r in [5] (transgenic line 6, 10-day-old seedlings); 203 pmoles 4-methylumbelliferone r in assay [5] (transgenic line 7, 10-day-old seedlings); 202 pmoles 4-methylumbelliferone r in [5] (transgenic line 19, 10-day-old seedlings).
On to `O=C([O-])c1c(Cl)c(Cl)c(Cl)c(Cl)c1-c1c2cc(I)c(=O)c(I)c-2oc2c(I)c([O-])c(I)cc12.[Na+].[Na+]` [rose bengal], for which the “plant defensin gene expression” value in assay [3] (setting [8]) is on record as “strongly induced”.
Regarding “Rs-AFP1: a known radish plant defensin (QKLCERPSGTWSGVCGNNNACKNQCINLEKARHGSCNYVFPAHKCICYFPC; UniProt P69241 30-80, looked up)”, in the assay with A. brassicicola, the “character of the growth inhibition (hyphal morphology)” value is “hyphal hyperbranching and tip swelling”.
In the case of `C=C` [ethylene], the “β-glucuronidase activity in pBg12-GUS-tNOS plants” value in assay [1] (in vivo) is “neither JA, MeJA, ethylene nor paraquat had any effect”. Moreover, in assay [2] (in vivo), the “induction” value is given as “without effect”; the “β-glucuronidase activity, single and combined treatments (synergy)” value is recorded as “did not cause increased”. In assay [3] (in vivo), the PDF1.2 accumulation entry is listed as “no induced PDF1.2 accumulation” and the “plant defensin gene expression” value is “significantly increased”.
As to `C[n+]1ccc(-c2cc[n+](C)cc2)cc1` [paraquat], in assay [1] (setting [6]), the “β-glucuronidase activity in pBg12-GUS-tNOS plants” value is “neither JA, MeJA, ethylene nor paraquat had any effect”. Moreover, the “induction” value in [2] (setting [7]) is reported as “induced”. In addition, the “plant defensin gene expression” value in [3] (setting [8]) is listed as “strongly induced”.

Values taken from patent US20020035738A1, “Plant protection method” (priority 1996, published 2002).
